Data from patent US20080139480A1, “Combination Of (A) N--4-(3- Pyridyl)-2-Pyrimidine-Amine And (B) At Least One Hypusination Inhibitor And The UseThereof” (priority 2003, published 2008).
“Also recorded” adds a separate entry of the source.

Tests used:
Format in all cases: cell-based
[1] = system: Bcr-Abl-negative HL-60 cells; test: MTT assay, growth inhibition / cellular cytotoxicity; conditions: ciclopirox 0 to 81 μM
Experimental: (§1) K562 cells were obtained from DSMZ (Bielefeld, Germany). HL-60 lines were kindly provided by Dr. Bühring (Tübingen, Germany). Both cell lines are cultured in RPMI 1640 medium (Gibco-BRL, Invitrogen, UK) containing 10% fetal calf serum (FCS) (Biochrom KG, Berlin, Germany). The cells are incubated at 37° C. in a humidified atmosphere with 5% CO2 in air.
(§2) K652 and HL-60 cells are plated into 96-well flat-bottomed microtiter plates (Becton Dickinson, Heidelberg, Germany) at 1.5×10^4 cells/well in 150 μl of their respective media.
(§3) All analyses are performed in triplicates. After 24 and 48 hours, the viable cells in each well are assayed for their ability to transform 3-(4,5-dimethylthiazol-2-yl)-2,5-diphenyltetrazolium bromide (MTT) into a purple formazan (Twentyman et al., Br. J. Haematol. 71, 19-24 (1989), Arnould et al., Anticancer Res. 10, 145-154 (1990)). Therefore, 10 μl of a 10 mg/ml MTT solution is added in each well. After an incubation period of 2 hours at 37° C., the purple formazan is released by adding lysis buffer (15% sodium dodecyl sulfate [SDS] in DMF/H2O 1:1, pH 4.5) and shaking overnight in the dark. The absorbance of the samples is measured on an enzyme-linked immunosorbent assay (ELISA) plate reader (Dynatech MR7000) at 570 nm. […]

[2] = system: Bcr-Abl positive K562 cells; test: as above; conditions: 24 h, ciclopirox 0 to 81 μM
Experimental: as §1, §2, §3

[3] = system: Bcr-Abl negative HL-60 cells; test: Apoptosis, flow cytometric evaluation of hypodiploid nuclei; conditions: ciclopirox 0 to 81 μM
Experimental: (§4) K562 and HL-60 (2×10^5 cells per well) are cultured in 24-well tissue plates under the conditions described above.
(§5) Briefly, nuclei are prepared by lysing cells in a hypotonic lysis buffer (1% sodium citrate, 0.1% Trition X-100, 50 μg propidium iodide per ml) and subsequently analyzed by flow cytometry. Nuclei to the left of the 2N peak containing hypodiploid DNA are considered as apoptotic. Flow cytometric analysis are performed on a FACScalibur (Becton Dickinson) using […] analysis software.
(§6) Apoptosis was also measured after 24 h by flow cytometric evaluation of hypodiploid nuclei as described in above Methods.

[4] = system: Bcr-Abl-positive K562 cells; test: as above; conditions: ciclopirox 0 to 81 μM
Experimental: as §4, §5, §6

Cc1cc(C2CCCCC2)n(O)c(=O)c1 [ciclopirox, 6-cyclohexyl-1-hydroxy-4-methyl-2(1H)-pyridinone]
cell viability, single agent [1]: inhibits cell viability
growth inhibition / cell viability, single agent [2]: inhibits cell viability; also recorded: anti-proliferative effect was detected
induction of apoptosis, single agent [3]: induces apoptosis
induction of apoptosis, single agent [4]: induces apoptosis
